Assay results: PubChem BioAssay (NCI)
Where “and” joins values, the source holds several entries; their conditions need not be identical. Equal values may be shown once.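 A five-concentration, 48-hour dose response in 96-well plates underlies each endpoint, interpolated linearly between surrounding concentrations. Abbreviation: GI50, concentration required for 50% inhibition of growth. Definition used: TGI = concentration required for complete inhibition of growth.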

Legend:
Assay in all cases: NCI tumour cell line growth inhibition, 48 h
A549 NSCLC = test system: A549 NSCLC
BT-549 breast = test system: BT-549 breast
CCRF-CEM leukemia = test system: CCRF-CEM leukemia
COLO 205 colon = test system: COLO 205 colon
LOX IMVI melanoma = test system: LOX IMVI melanoma
RXF 393 renal = test system: RXF 393 renal
SK-MEL-28 melanoma = test system: SK-MEL-28 melanoma
SNB-75 CNS = test system: SNB-75 CNS
SR leukemia = test system: SR leukemia

SMILES	TGI (A549 NSCLC)	TGI (BT-549 breast) [µM]	TGI (CCRF-CEM leukemia)	TGI (COLO 205 colon)	TGI (LOX IMVI melanoma) [µM]	TGI (RXF 393 renal) [µM]	TGI (SK-MEL-28 melanoma) [µM]	TGI (SNB-75 CNS)	TGI (SR leukemia) [µM]	GI50 (A549 NSCLC) [µM]	GI50 (CCRF-CEM leukemia) [µM]	GI50 (COLO 205 colon) [µM]	GI50 (LOX IMVI melanoma) [µM]	GI50 (RXF 393 renal) [µM]	GI50 (SK-MEL-28 melanoma) [µM]	GI50 (SNB-75 CNS) [µM]	GI50 (SR leukemia) [µM]	GI50 (BT-549 breast) [µM]
Clc1ccc(-c2cn3c(nc4ccccc43)c(-c3ccccc3)n2)cc1	51.4 µM	50.2	> 100 µM	> 100 µM	> 100	> 49.2	> 100	> 36.6 µM	> 100	–	–	–	–	–	–	–	–	–
Cc1sc(/N=C/C2=C(O)CC(C)(C)CC2=O)nc1-c1ccccc1	> 100 µM	> 100	> 100 µM	> 100 µM	> 100	> 100	> 100	> 100 µM	> 100	–	–	–	–	–	–	–	–	–
COc1cc2c(c(OC)c1OC)C(=O)c1c(O)cc(C)c(OC)c1C2=O	> 100 µM	> 100	–	> 100 µM	> 100	–	> 100	> 100 µM	> 100	–	–	–	–	–	–	–	–	–
Clc1cc(N/N=C(\c2ccccc2)c2ccccn2)ncn1	> 100 µM	> 100	1.3 µM	–	1.74	> 100	> 100	> 100 µM	3.08	–	–	–	–	–	–	–	–	–
S=C(NCc1ccccn1)N/N=C/c1ccccn1	1.46 µM	–	< 0.011 µM	0.379 µM	33.3	4.52	> 100	> 100 µM	0.0113	–	–	–	–	–	–	–	–	–
CN(CCN)[C@H](CSSC[C@@H](c1ccccc1O)N(C)CCN)c1ccccc1O	23.9 µM	25	10.5 µM	> 53.6 µM	28.5	43.7	33.5	29 µM	11.5	–	–	–	–	–	–	–	–	–
NC(=S)NNCC(=O)CC(O)(C(F)(F)F)C(F)(F)Cl (stereo unspecified)	> 100 µM	> 100	> 100 µM	> 100 µM	> 100	> 100	> 100	> 100 µM	> 100	–	–	–	–	–	–	–	–	–
O=CN1CCN(c2ccc3ccc(=O)[nH]c3n2)CC1	> 100 µM	> 100	> 100 µM	> 100 µM	> 100	–	> 100	> 100 µM	> 100	–	–	–	–	–	–	–	–	–
COC(=O)c1ccccc1C1CN=NC12Cc1ccc(C)cc1C2=O (stereo unspecified)	> 100 µM	> 100	> 100 µM	> 100 µM	> 100	> 100	> 100	> 100 µM	> 100	–	–	–	–	–	–	–	–	–
OCCc1ccsc1-c1sc(-c2cc(CCO)c(-c3sc(-c4cc(CCO)c(-c5sccc5CCO)s4)cc3CCO)s2)cc1CCO	2.2 µM	2.21	> 25.4 µM	5.03 µM	2.47	1.21	3.27	2.89 µM	2.59	–	–	–	–	–	–	–	–	–
CN(C(=O)Cc1ccccc1)n1cn[n+](CC(=O)OC(C)(C)C)c1	> 10 µM	> 10	> 10 µM	> 10 µM	> 10	–	> 10	–	> 10	–	–	–	–	–	–	–	–	–
O=C(Nc1cccc(-n2ccc3c(NC(=O)c4ccccc4)ncnc32)c1)Nc1ccc(Cl)c(C(F)(F)F)c1	7.35 µM	–	9.04 µM	8.36 µM	15	6.66	9.44	9.15 µM	15	2.11	0.655	2.67	2.82	1.68	2.75	0.954	2.35	–
C[C@]12CC[C@H]3[C@@H](CC=C4C[C@@H](O)CC[C@@]43C)[C@@H]1C/C(=C\c1cccnc1)[C@@H]2O	> 100 µM	48.9	> 100 µM	> 100 µM	4.46	80.2	> 100	–	> 100	–	–	–	–	–	–	–	–	–
Cc1ccc(/C=c2\cc3oc(=O)c4cccc(c4-3)c2=O)cc1	–	–	68.2 µM	> 100 µM	> 100	–	> 100	> 100 µM	> 100	–	–	–	–	–	–	–	–	–
CC(=O)N[C@@H](Cc1ccc(O)cn1)C(=O)NCc1ccc(Cl)cc1	> 100 µM	> 100	> 100 µM	> 100 µM	> 100	> 100	> 100	–	–	–	–	–	–	–	–	–	–	–
O=c1cc(NNc2cccc3ccccc23)[nH]c(=O)[nH]1	33.4 µM	30.2	81.9 µM	31.3 µM	26.7	31.9	33.3	31.4 µM	–	–	–	–	–	–	–	–	–	–
CCCC(=O)Nc1cc(C(=O)N2C[C@H]3C[C@@]34C2=CC(=O)c2[nH]cc(C)c24)n(COC)c1	50 µM and 12.8 µM	–	0.105 µM and 0.245 µM	1.14 µM and 0.261 µM	–	–	1.28	1.45 µM and 0.718 µM	0.0236	1.2	–	0.119	–	0.106	–	–	–	0.159
CSc1cc(Cl)c(C)cc1S(=O)(=O)NC(=O)NNc1ccc(C)cc1	> 100 µM	–	> 100 µM	> 100 µM	> 100	> 100	> 100	> 100 µM	> 100	–	–	–	–	–	–	–	–	–
CCOC(=O)c1ccc(N(CCOS(C)(=O)=O)CCOS(C)(=O)=O)cc1	> 100 µM	> 100	77.6 µM	> 100 µM	> 100	38.5	> 100	–	–	–	–	–	–	–	–	–	–	–
O=C(/C=C/c1ccc(OCc2ccccc2)cc1)NCc1ccc(C(=O)NCCc2ccccc2)cc1	> 100 µM	> 100	> 100 µM	> 100 µM	> 100	> 100	> 100	> 100 µM	–	–	–	–	–	–	–	–	–	–
O=c1cc(-c2cccc(OC(F)(F)F)c2)[nH]c2ccc(N3CCCC3)cc12	44.5 µM	–	> 100 µM	0.0204 µM and 0.0319 µM	–	0.738	–	–	< 0.0001	–	–	–	–	–	–	–	–	–
COC(=O)CN1CCN(c2cccc3c2CCCC3)CC1	> 100 µM	–	> 100 µM	> 100 µM	> 100	> 100	–	> 100 µM	> 100	–	–	–	–	–	–	–	–	–
O=C(C[N+]12CN3CN(CN(C3)C1)C2)c1ccc(-c2ccccc2)cc1	> 100 µM	71.7	5.37 µM	–	30.6	37.7	37	38.6 µM	12.2	–	–	–	–	–	–	–	–	–
O=C(O)CN1C(=O)c2ccc(NC(=O)C(=O)O)cc2S1(=O)=O	> 100 µM	> 100	> 100 µM	> 100 µM	> 100	> 100	> 100	–	> 100	–	–	–	–	–	–	–	–	–
CC(=O)c1csc2c1C(=O)c1ccccc1C2=O	4.06 µM	3.01	4.01 µM	3.62 µM	31.3	26.7	5.07	3.11 µM	–	–	–	–	–	–	–	–	–	–
